Values after ≈ are worked out from the molar mass of the structure shown.
Each molecule was assayed on ADP-induced aggregation of human platelets. Details: vs ADP, 0.5 mcg/mL final; human platelet rich plasma; Table 2; read-out: Inhibition of Human Platelet Aggregation of Formula II Compounds (IC50) Vs ADP.
Assay type: cell-based

Row | IC50 | SMILES
1 | 1 µg/mL (≈ 2.27 µM) | COC(=O)COc1cccc(CCn2nc(-c3ccccc3)c(-c3ccccc3)nc2=O)c1 [Example 5, Methyl [3-[2-(2,3-dihydro-3-oxo-5,6-diphenyl-1,2,4-triazin-2-yl)ethyl]phenoxy]acetate]
2 | 0.9 µg/mL (≈ 2.11 µM) | O=C(O)COc1cccc(CCn2nc(-c3ccccc3)c(-c3ccccc3)nc2=O)c1 [Example 6, [3-[2-(2,3-Dihydro-3-oxo-5,6-diphenyl 1,2,4-triazin-2-yl)ethyl]phenoxy]acetic Acid]

Same assay, conditions: vs. ADP, 0.5 mcg/mL final; human platelet rich plasma; Table 1; read-out: Inhibition of Human Platelet Aggregation of Formula I Compounds (IC50) vs. ADP

Row | IC50 | SMILES
3 | 6.8 µg/mL (≈ 16.2 µM) | COC(=O)CCCCCCCCn1nc(-c2ccccc2)c(-c2ccccc2)nc1=O [Example 1, Methyl 3-oxo-5,6-diphenyl-1,2,4-triazine-2(3H)-nonanoate]
4 | 2.2 µg/mL (≈ 5.43 µM) | O=C(O)CCCCCCCCn1nc(-c2ccccc2)c(-c2ccccc2)nc1=O [Example 2, 3-Oxo-5,6-diphenyl-1,2,4-triazine-2(3H)-nonanoic acid]
5 | 4.6 µg/mL (≈ 11.3 µM) | COC(=O)CCCCCCCn1nc(-c2ccccc2)c(-c2ccccc2)nc1=O [Example 3, Methyl 3-Oxo-5,6-diphenyl-1,2,4-triazine-2(3H)-octanoate]
6 | 3.1 µg/mL (≈ 7.92 µM) | O=C(O)CCCCCCCn1nc(-c2ccccc2)c(-c2ccccc2)nc1=O [Example 4, 3-Oxo-5,6-diphenyl-1,2,4-triazin-2(3H)-octanoic Acid]

— patent US5021415A, “Triazine carboxylic acids and esters” (Bristol-Myers Squibb Co., priority 1990, dated 1991)
